In ChEMBL document CHEMBL2203066 (J Med Chem, 2012):

Assays:
Influenza A virus [1] = experiment: Antiviral activity against oseltamivir-resistant Influenza A virus A/WSN/1933/H275Y (pandemic H1N1) infected in MDCK cells assessed as protection against virus-induced cytopathic effect after 48 to 72 hrs by CellTiter 96 aqueous assay; format: functional, organism-based, A/WSN/1933/H275Y(H1N1)
Influenza A virus [2] = experiment: Antiviral activity against oseltamivir-resistant Influenza A virus A/Hong Kong/2369/09/H275Y(H1N1) infected in MDCK cells assessed as protection against virus-induced cytopathic effect after 48 to 72 hrs by CellTiter 96 aqueous assay; format: functional, organism-based

SMILES	EC50 (Influenza A virus [1]) [µM]	EC50 (Influenza A virus [2]) [µM]
CCC(CC)O[C@@H]1C=C(P(=O)(O)O)C[C@H](N)[C@H]1NC(C)=O [TAMIPHOSPHOR]	7.4	6.55
CCOP(=O)(O)C1=C[C@@H](OC(CC)CC)[C@H](NC(C)=O)[C@@H](N)C1 [TAMIPHOSPHOR MONOETHYL ESTER]	0.49	0.44
CCC(CC)O[C@@H]1C=C(P(=O)(O)O)C[C@H](NC(=N)N)[C@H]1NC(C)=O	3.2	4.6
